Experimental data published in patent US20130142866A1, “COMPOSITIONS AND METHODS FOR IMPROVED ORGAN TRANSPLANT PRESERVATION AND ACCEPTANCE” (NOVALIQ GMBH, priority 2010, published 2013).
In brackets after ≈: the same amount, converted by molar mass. Entries after “also recorded” stand apart in the source; their conditions may differ. Blank lines part the entries; values can stand above or below the compound they belong to.

Assays:
[1] = Solubilisation of N-octanoyl dopamine by polysorbates; format: physicochemical; conditions: 0.5 wt.-% polysorbate 20 or polysorbate 80 solution, aqueous with cosolvent or surfactant or cyclodextrin; 0.5 wt.-% polysorbate 20 or polysorbate 80, individually; read-out: amount of N-octanoyl dopamine solubilised
Description: In one particular embodiment, the amount of amphiphilic excipient is at least about 0.05 wt.-%. According to a further embodiment, the amount is from about 0.1 wt.-% to about 30 wt.-%, or from about 0.5 wt.-% to about 20 wt.-%, respectively. […] However, if the composition is to be used as a concentrate to be added to a commercial solution for tissue and organ preservation, the concentrate itself may also comprise the amphiphilic excipient at a relatively high concentration, taking into account the dilution factor. In a further embodiment, the ratio of N-octanoyl dopamine to the amphiphilic excipient is selected in the range from about 5:1 to about 1:50.

[2] = Compatibility with organ preservation solutions (UW, HTK); format: physicochemical; conditions: usual behaviour, leading to brownish-pink colour
Method: Two samples of the formulation of example 4 having a N-octanoyl dopamine concentration of 11.16 mg/mL were individually mixed with either University of Wisconsin solution (Viaspan, or UW) or histidine-tryptophan-ketoglutarate (HTK) solution (Custodiol) at a volume ratio of 1:4 (1 part of the inventive composition plus 4 parts of the conventional solution).

[3] = test system: Human umbilical vein endothelial cells (HUVEC) stimulated with TNF-α; assay: TNF-α-mediated inflammation in HUVEC (gene expression profiling, qPCR, Western blotting, NF-κB activation); format: cell-based
Method: Human umbilical vein endothelial cells (HUVEC) were stimulated with TNF-α (tumour-necrosis-factor alpha) in the absence or presence of various concentrations of the N-octanoyl dopamine formulation. Affymetrix Gene Expression Profiling, quantitative PCR, Western-blotting and NF-κB activation were performed to assess the anti-inflammatory potential of the composition of the invention. As a comparator, a surfactant-free aqueous dispersion of N-octanoyl dopamine, which is not an embodiment of the invention, was also tested.

[4] = test system: freshly isolated T-cells; assay: T-cell proliferation, anti-CD3/anti-CD28 activation, 3H-thymidine incorporation; format: cell-based
Method: A cell-culture system was used in which freshly isolated T-cells were polyclonally activated by anti-CD3/anti-CD28 beads. The cells were allowed to proliferate for at least 10 days in the presence or absence of different dilutions of the composition of the invention. T-cell proliferation was assessed on day 3, 5, 7 and 10 by means of 3H-thymidine incorporation. In this model, T-cell proliferation is maximal at day 3 and gradually declines at day 10.
The experiments were repeated, except that freshly isolated T-cells were stimulated with anti-CD3/antio-CD28 antibodies in the presence of the composition diluted to a concentration of 50 μM of N-octanoyl dopamine and various concentrations of ciclosporin A or tacrolimus. Similar concentrations of ciclosporin A or tacrolimus were also tested in the absence of the composition.

[5] = test system: Cardiomyocytes; assay: Cold storage injury of cardiomyocytes (ATP, LDH release, contraction rate); format: cell-based, rats
Method: Cardiomyocytes were freshly isolated from new born rats and cultured for 3 days. […] ATP levels and LDH release was measured after 8 hours of cold preservation and hereafter cardiomyocytes were re-warmed and the contraction rate per well and ATP regeneration were determined.

- solubility [1]: 40 mM (≈ 11.2 mg/mL)
- oxidation of N-octanoyl dopamine when mixed with UW or HTK [2]: occurs very rapidly
Structure (SMILES): CCCCCCCC(=O)NCCc1ccc(O)c(O)c1 [N-octanoyl dopamine, N-octanoyl-4-(2-aminoethyl)benzene-1,2-diol]
- HO-1 expression [3]: strongly upregulated
- concentration at which HO-1 was significantly induced [3]: 1 µM
- concentration required for inhibition of VCAM-1 expression [3]: 50 µM
- T-cell proliferation ([4]; 25 μM N-octanoyl dopamine): without effect
- T-cell proliferation ([4]; 50 μM N-octanoyl dopamine): inhibited T-cell proliferation at day 3; also recorded: only partly inhibited T-cell proliferation at day 3 but not thereafter
- reduction of the amount of calcineurin inhibitor required for complete T-cell suppression ([4]; 50 μM N-octanoyl dopamine): at least 1000 fold
- T-cell proliferation ([4]; 100 μM N-octanoyl dopamine): inhibited at day 3, day 5 and partly at day 7
- NFκB and AP-1 in T-cells ([4]; downstream of early T-cell receptor signalling events): inhibition
- inhibition of T-cell proliferation after oxidation / without redox activity ([4]; oxidation of N-octanoyl dopamine, or compounds lacking redox activity): abrogated

Structure (SMILES): NCCc1ccc(O)c(O)c1 [dopamine]
- LDH-release after cold storage ([5]; 8 hours at 4° C., FIG. 2): inhibited
- ATP level after cold storage ([5]; 8 hours at 4° C., compared with untreated cells, FIG. 1): dose-dependent mitigation of ATP loss
- regeneration of ATP after re-warming ([5]; after 8 hours at 4° C., compared to untreated cells): much faster
- contraction rate after re-warming ([5]; after 8 hours at 4° C., treated cells): significantly improved rate

Structure (SMILES): C=CC[C@@H]1/C=C(\C)C[C@H](C)C[C@H](OC)[C@H]2O[C@@](O)(C(=O)C(=O)N3CCCC[C@H]3C(=O)O[C@H](/C(C)=C/[C@@H]3CC[C@@H](O)[C@H](OC)C3)[C@H](C)[C@@H](O)CC1=O)[C@H](C)C[C@@H]2OC [tacrolimus, reference compound]
- concentration of maximal inhibition of T-cell proliferation ([4]; calcineurin inhibitor alone, absence of the composition): 1 µM
- ciclosporin A or tacrolimus concentration still giving complete inhibition of T-cell proliferation ([4]; in the presence of 50 μM N-octanoyl dopamine): 1 nM
